One may read the EC50 as the concentration at which the effect is half-maximal. Low values mean an effect from little substance, high ones a need for much substance.

This experiment deals with PPIL4 with GFP-CRBN-DDB1∆B (Homo sapiens, UniProt Q8WUA2+Q96SW2). Nature of the experiment: TR-FRET ternary complex formation. Type of experiment: binding. (In TR-FRET formats the signal depends on donor and acceptor labels being close together.)

SMILES strings stand for the structures.

Sequence of PPIL4 with GFP-CRBN-DDB1∆B (Q96SW2 whole entry): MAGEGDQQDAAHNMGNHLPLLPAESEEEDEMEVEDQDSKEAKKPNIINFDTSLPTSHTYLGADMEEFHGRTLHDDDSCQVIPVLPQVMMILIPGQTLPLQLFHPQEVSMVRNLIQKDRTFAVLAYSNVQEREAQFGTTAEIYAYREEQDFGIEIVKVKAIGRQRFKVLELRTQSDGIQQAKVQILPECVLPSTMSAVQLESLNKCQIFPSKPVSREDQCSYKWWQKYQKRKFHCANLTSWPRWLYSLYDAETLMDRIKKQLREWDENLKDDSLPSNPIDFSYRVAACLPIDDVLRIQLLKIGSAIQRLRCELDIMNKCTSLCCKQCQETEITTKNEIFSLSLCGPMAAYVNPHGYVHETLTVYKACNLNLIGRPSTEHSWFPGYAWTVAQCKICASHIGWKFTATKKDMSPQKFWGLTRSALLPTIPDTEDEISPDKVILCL
Sequence of PPIL4 with GFP-CRBN-DDB1∆B (Q8WUA2 whole entry): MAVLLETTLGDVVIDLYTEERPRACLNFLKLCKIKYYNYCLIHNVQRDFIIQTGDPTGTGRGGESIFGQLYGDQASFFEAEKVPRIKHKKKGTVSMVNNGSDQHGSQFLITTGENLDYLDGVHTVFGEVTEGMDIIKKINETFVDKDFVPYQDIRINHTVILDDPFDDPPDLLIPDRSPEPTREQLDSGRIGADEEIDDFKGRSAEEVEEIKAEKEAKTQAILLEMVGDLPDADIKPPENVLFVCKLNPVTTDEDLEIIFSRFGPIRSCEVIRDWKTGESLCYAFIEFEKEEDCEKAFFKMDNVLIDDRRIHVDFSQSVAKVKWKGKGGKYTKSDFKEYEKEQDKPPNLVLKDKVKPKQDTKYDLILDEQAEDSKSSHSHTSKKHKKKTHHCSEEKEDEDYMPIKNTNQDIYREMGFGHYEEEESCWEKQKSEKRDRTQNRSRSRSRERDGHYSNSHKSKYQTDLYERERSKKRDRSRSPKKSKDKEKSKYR
Sequence of PPIL4 with GFP-CRBN-DDB1∆B (Q16531 1-395 partner): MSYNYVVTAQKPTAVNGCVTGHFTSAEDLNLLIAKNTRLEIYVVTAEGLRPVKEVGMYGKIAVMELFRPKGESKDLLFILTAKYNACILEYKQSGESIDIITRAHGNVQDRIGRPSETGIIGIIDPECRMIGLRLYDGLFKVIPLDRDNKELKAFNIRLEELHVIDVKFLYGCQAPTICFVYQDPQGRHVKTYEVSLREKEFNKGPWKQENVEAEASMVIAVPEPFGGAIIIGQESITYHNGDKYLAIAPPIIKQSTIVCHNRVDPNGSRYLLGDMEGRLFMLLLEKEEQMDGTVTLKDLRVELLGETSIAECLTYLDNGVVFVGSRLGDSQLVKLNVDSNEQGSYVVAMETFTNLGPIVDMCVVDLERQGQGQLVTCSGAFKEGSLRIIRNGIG
Sequence of PPIL4 with GFP-CRBN-DDB1∆B (Q16531 706-1140 partner): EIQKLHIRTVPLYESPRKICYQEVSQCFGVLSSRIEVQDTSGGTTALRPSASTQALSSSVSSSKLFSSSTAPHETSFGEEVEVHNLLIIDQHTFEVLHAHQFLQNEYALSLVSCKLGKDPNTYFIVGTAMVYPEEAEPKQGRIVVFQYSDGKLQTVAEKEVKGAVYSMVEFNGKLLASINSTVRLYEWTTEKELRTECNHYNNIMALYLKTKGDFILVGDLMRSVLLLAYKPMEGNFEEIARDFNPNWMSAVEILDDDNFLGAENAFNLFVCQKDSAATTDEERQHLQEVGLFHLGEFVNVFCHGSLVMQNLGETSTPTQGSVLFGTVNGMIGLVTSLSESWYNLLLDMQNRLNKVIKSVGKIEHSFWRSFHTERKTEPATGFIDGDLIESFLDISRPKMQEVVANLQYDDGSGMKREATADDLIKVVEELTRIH

For `COc1cscc1-c1cn([C@H]2CCC(=O)NC2=O)nn1` [FPFT-2216], the EC50 was found to be 1050 nM.

For the origin of these results see paper PMC12289921 (Nature Communications, 2025).
